{"source": "patent US7887850B2", "about": "“Method for reducing pathogens in the gastrointestinal tract of poultry and other food animals” (Ecolab Inc., priority 2004, dated 2011)", "system": "broilers", "procedure": "A total of 320 broilers (35 days of age) were randomly allocated to 64 pens (5 birds/pen). […] All solutions were prepared and replaced twice a day, and all birds were given free access to the solutions. Water intake, feed consumption, weight gain, and mortality was monitored during the seven day experimental period."}
{"compound": "O=C(O)CC(O)(CC(=O)O)C(=O)O", "note": "[citric acid]", "values": [{"measurement": "levels that did not affect live performance", "setting": "broilers, drinking water, seven days, percent by weight", "value": "up to 0.4%"}, {"measurement": "differences in mortality during the experiment", "setting": "chicken (broilers), in vivo", "value": "No significant (P>0.05) differences"}, {"measurement": "response of daily and 7-day water consumption to graded levels in the water", "setting": "in vivo", "value": "Linear and quadratic responses"}]}
